The test system of one data set is dd-strain male mice. Briefly: Acute Toxicity Test. Conditions: mortality seven days after administration. In kind it is in vivo. From the text: Test compounds were orally or intraperitoneally administered to groups of dd-strain male mice weighing 20±1 g, each group consisting of three mice.
The subject of data set [1] is murine cerulein pancreatitis. In words: effects on murine cerulein pancreatitis (serum amylase, lipase, GPT). In kind it is in vivo, murine (female BALB/C mice). The conditions noted are these: mean±SEM. The method, then: Test of the effects on murine cerulein pancreatitis
Experiment was conducted in accordance with the method described in Digestive Diseases and Science, 37, 274-279 (1992). Female BALB/C mice weighing 17 to 24 g were fasted for 16 hours. Water was provided ad libitum. Acute pancreatitis was induced by the administration of seven intraperitoueally injections of cerulein (50 μg/kg) at hourly intervals. Blood was drawn from abdominal vein, 3, 6, and 9 hours after the first injection of cerulein in case of Compound 1, Compound 2 and compound 3, while in case of Compound 4, blood was drawn therefrom 7 hours after the first injection of cerulein. Blood samples were centrifuged at 4° C. and 3,000 rpm for 10 minutes, and serum was separated. Serum amylase (Amy), lipase (Lip), and glutamic pyruvic transaminase (GPT) activities were measured. For Compound 1, Compound 2 and Compound 3, serum Amy was assayed with AU500/550 specific reagent "Katayama" Amy test(Katayama Chemical Industry Co., Ltd.); for Compound 4, serum Amy was assayed with "Rikitech P-AMY EPS" of BM pancreas-related reagent series (Boehringer Mannheim K. K.). Serum GPT was assayed with "Katayama" GPT test (Katayama Chemical Industry, Co., Ltd.). Serum Lip was assayed with an auto-analyzer reagent "Kyowa" Determiner Lipase (Kyowa Medex, Co., Ltd.). Compound 1, Compound 2, and Compound 3 were suspended in 0.5% methyl cellulose, and […] before the first injection of cerulein, the resulting suspension was orally given at a dose of 10 ml/kg. The solvent (0.5% methyl cellulose) was similarly given to a control group. Compound 4 was dissolved in distilled water, which was adjusted to pH 2 with 0.1N HCl, and then the resulting solution was adjusted to pH 4.5 with 0.1N sodium hydroxide. Compound 4 was orally administered one hour before the first injection of cerulein. The solvent (distilled water for injections, after adjustment to pH 4.5 with 0.1N HCl) was similarly given to a control group.
Results are expressed as means±SEM where appropriate. Difference between normal group and control group were evaluated using the Wilcoxon's rank sum test. And for differences between control group and test compound-treated group, the Steel's test was used for Compound 1 and the Wilcoxon's rank sum test was used for Compounds 2, Compound 3 and Compound 4.
The effects of Compound 1, Compound 2 and Compound 3 on serum Amy, serum Lip and serum GPT are shown in Tables 2, 3 and 4; and the effect of Compound 4 are shown in Table 5.

Another data set concerns adenosine uptake. Conditions: Nucleosides & Nucleotides, 10, 975-982 (1991); cited from earlier work.
[2] abbreviates: 10 mg/kg oral, 3 h after the first injection of cerulein.
[3] abbreviates: 10 mg/kg oral, 6 h after the first injection of cerulein.
The mark [4] stands for this setting: 10 mg/kg oral, 9 h after the first injection of cerulein.
Where [5] appears, read: 30 mg/kg oral, 3 h after the first injection of cerulein.
Where [6] appears, read: 30 mg/kg oral, 6 h after the first injection of cerulein.
Setting [7] is: 30 mg/kg oral, 9 h after the first injection of cerulein.
The mark [8] stands for this setting: 300 mg/kg oral, 3 h after the first injection of cerulein.
[9] abbreviates: 300 mg/kg oral, 6 h after the first injection of cerulein.
[10] abbreviates: 300 mg/kg oral, 9 h after the first injection of cerulein.
The mark [11] stands for this setting: 10 mg/kg oral, 7 hours after the first injection of cerulein.

Counter-ions that a name gives are not always drawn.

`CCOc1cc2nc(N3CCOCC3)nc(N3CCC(n4c(=O)c5cc(C)ccc5n(C)c4=O)CC3)c2cc1OCC` [Compound 1, 3-[1-(6,7-Diethoxy-2-morpholino-4-quinazolynyl)-4-piperidinyl]-1,2,3,4-tetrahydro-1,6-dimethyl-2,4-dioxoquinazoline hydrochloride salt]: the figures for the “minimum lethal dose (MLD)” value with dd-strain male mice (intraperitoneal dosing) and in the data set on dd-strain male mice (oral dosing) were “greater than 100 mg/kg” and “greater than 1000 mg/kg”, respectively. The “Serum GPT” value is on record as 37 ± 3 IU/L in data set [1] (setting [2]); 50 ± 3 IU/L in data set [1] (setting [3]); 76 ± 5 IU/L in data set [1] (setting [4]); 32 ± 3 IU/L in data set [1] (setting [5]); 51 ± 6 IU/L in data set [1] (setting [6]); 52 ± 5 IU/L in data set [1] (setting [7]). Moreover, the Serum amylase turned out to be 4283 ± 245 IU/L in data set [1] (setting [2]); 4967 ± 167 IU/L in data set [1] (setting [3]); 14817 ± 1459 IU/L in data set [1] (setting [4]); 4133 ± 264 IU/L in data set [1] (setting [5]); 5200 ± 274 IU/L in data set [1] (setting [6]); 5658 ± 682 IU/L in data set [1] (setting [7]). The Serum lipase in data set [1] (setting [2]) is listed as 55 ± 3 IU/L; in data set [1] (setting [3]) it was 91 ± 22 IU/L; in data set [1] (setting [4]), 466 ± 74 IU/L; in data set [1] (setting [5]), 58 ± 5 IU/L; in data set [1] (setting [6]), 81 ± 8 IU/L; in data set [1] (setting [7]), 95 ± 15 IU/L.

Consider `NC(=O)C1CN(CCCCC(c2ccc(F)cc2)c2ccc(F)cc2)CCN1CC(=O)Nc1c(Cl)cc(N)cc1Cl` (stereo not drawn) [Compound 2, 2-Aminocarbonyl-N-(4-amino-2,6-dichlorophenyl)-4-[5,5-bis(4-fluorophenyl)pentyl]-1-piperazine acetamide], for which the “minimum lethal dose (MLD)” value in the data set on dd-strain male mice (intraperitoneal dosing) was “greater than 100 mg/kg”; in the data set with dd-strain male mice (oral dosing), “greater than 300 mg/kg”. The “Serum GPT” value in data set [1] (setting [8]) was found to be 55 ± 2 IU/L; in data set [1] (setting [9]), 59 ± 6 IU/L; in data set [1] (setting [10]), 129 ± 23 IU/L. In addition, the Serum amylase in data set [1] (setting [8]) was 4967 ± 291 IU/L; in data set [1] (setting [9]), 4417 ± 305 IU/L; in data set [1] (setting [10]), 9517 ± 23 IU/L. Besides, the Serum lipase in data set [1] (setting [8]) is recorded as 238 ± 9 IU/L; in data set [1] (setting [9]), 217 ± 51 IU/L; in data set [1] (setting [10]) it was 726 ± 23 IU/L.

Take `NC(=O)C1CN(Cc2nc(-c3ccccc3)c(-c3ccccc3)o2)CCN1CC(=O)Nc1c(Cl)cc([N+](=O)[O-])cc1Cl` (stereo not drawn) [Compound 3, 2-Aminocarbonyl-N-(2,6-dichloro-4-nitrophenyl)-4-[(4,5-diphenyl-2-oxazolyl)methyl]-1-piperazine acetamide . dihydrochloride salt]: in data set [1] (setting [5]), the “Serum GPT” value is 64 ± 11 IU/L, the Serum amylase is reported as 4050 ± 309 IU/L and the Serum lipase came out at 243 ± 40 IU/L. Besides, in data set [1] (setting [6]), the “Serum GPT” value was found to be 40 ± 1 IU/L, the Serum amylase was 3733 ± 149 IU/L and the Serum lipase is 135 ± 6 IU/L. In data set [1] (setting [7]), the “Serum GPT” value came out at 59 ± 7 IU/L, the Serum amylase is 3958 ± 146 IU/L and the Serum lipase amounted to 200± 13 IU/L.

Regarding `CCOc1cc2c(N3CCC(n4c(=O)c5cc(C)ccc5n(C)c4=O)CC3)nc(N3CCOCC3)nc2cc1OCCO` [Compound 4, 3-[1-[6-ethoxy-7-(2-hidroxyethyl)oxy-2-morpholino-4-quinazolynyl]-4-piperidinyl]-1,2,3,4-tetrahydro-1,6-dimethyl-2,4-dioxoquinazoline], the “Serum Amirase” value in data set [1] (10 mg/kg oral, 7 hours after the first injection of cerulein, P-AMY assay) is 14690 ± 922 IU/l. Also, in data set [1] (setting [11]), the “Serum GPT” value is listed as 67 ± 2 IU/l and the “Serum lipase” value is on record as 195 ± 23 IU/l.

For the molecule `NC(=O)C1CN(CCCCC(c2ccc(F)cc2)c2ccc(F)cc2)CCN1CC(=O)Nc1c(Cl)cc(N)cc1Cl` (stereo not drawn) [Compound R75231], the “action of inhibiting adenosine uptake” value in the data set on adenosine uptake is “have an action of inhibiting adenosine uptake”.

As for `COc1cc(C(=O)OCCCN2CCCN(CCCOC(=O)c3cc(OC)c(OC)c(OC)c3)CC2)cc(OC)c1OC` [dilazep], the “action of inhibiting adenosine uptake” value with adenosine uptake is given as “have an action of inhibiting adenosine uptake”.

For `OCCN(CCO)c1nc(N2CCCCC2)c2nc(N(CCO)CCO)nc(N3CCCCC3)c2n1` [dipyridamole], the “action of inhibiting adenosine uptake” value in the data set on adenosine uptake is listed as “have an action of inhibiting adenosine uptake”.

As to `COc1cc(C(=O)OCCCN(C)CCN(C)CCCOC(=O)c2cc(OC)c(OC)c(OC)c2)cc(OC)c1OC` [hexobendine], in the data set on adenosine uptake, the “action of inhibiting adenosine uptake” value is recorded as “have an action of inhibiting adenosine uptake”.

With `Cc1cccc(C)c1NC(=O)CN1CCN(CCCC(c2ccc(F)cc2)c2ccc(F)cc2)CC1` [lidoflazine], in the data set with adenosine uptake, the “action of inhibiting adenosine uptake” value is listed as “have an action of inhibiting adenosine uptake”.
